# Results reported in US11053230B2, “3-hydroxy-imidazolidin-4-one compounds as inhibitors of indoleamine 2,3-dioxygenase” (Netherlands Translational Research Center B.V., priority 2017, dated 2021).
# “And” between values parts separate entries of the source, which are not always exact repeats. Equal values may be shown once.
# Molecular target: T1, IDO1 (Homo sapiens, UniProt P14902)
# T1 construct: Recombinant full-length IDO1 (Seegers, N., et al.) and all other assay components were diluted in IDO1 reaction buffer; made in house
# Assay: Biochemical IDO1 assay (NFK GreenScreen)
# Conditions: NFK GreenScreen; 25 nM IDO1, 100 μM L-tryptophan; read-out: IC50, inhibitory potency on IDO1
# Description: Inhibition of IDO1 activity can be measured by determining the enzymatic conversion of L-tryptophan into N-formylkynurenine (NFK) in a reaction mixture containing IDO1 and test compound. The formation of NFK can be detected directly by, for instance, high-performance liquid chromatography (HPLC) methods, or by intrinsic fluorescence.
# Compounds were serially diluted in dimethylsulfoxide (DMSO) and finally in IDO1 reaction buffer, consisting of 50 mM NaH2PO4, pH7.0, supplemented with 0.05% Tween-20 (cat. No. P7949; Sigma Aldrich) and 1% glycerol. Recombinant full-length IDO1 (Seegers, N., et al.) and all other assay components were diluted in IDO1 reaction buffer. […] Subsequently, 10 μl of 0.4 mM of the substrate L-tryptophan was added, i.e., the final concentration of L-tryptophan was 100 μM. The DMSO concentration in the assay was 0.3%. […] Incubation was continued for 60 min at room temperature. Then, 10 μl of NFK Green™ (NTRC, Oss, The Netherlands) was added, the plate was sealed, and the reaction was developed for 3 hours at 37° C. To determine the production of N-formyl kynurenine (NFK), the seal was removed and fluorescence was read on an EnVision multimode reader (Perkin Elmer, Waltham, Mass., USA). IC50 were calculated using XLfit™ software (ID Business Solutions, Ltd., Surrey, U.K.).
# T1 sequence (P14902 whole entry): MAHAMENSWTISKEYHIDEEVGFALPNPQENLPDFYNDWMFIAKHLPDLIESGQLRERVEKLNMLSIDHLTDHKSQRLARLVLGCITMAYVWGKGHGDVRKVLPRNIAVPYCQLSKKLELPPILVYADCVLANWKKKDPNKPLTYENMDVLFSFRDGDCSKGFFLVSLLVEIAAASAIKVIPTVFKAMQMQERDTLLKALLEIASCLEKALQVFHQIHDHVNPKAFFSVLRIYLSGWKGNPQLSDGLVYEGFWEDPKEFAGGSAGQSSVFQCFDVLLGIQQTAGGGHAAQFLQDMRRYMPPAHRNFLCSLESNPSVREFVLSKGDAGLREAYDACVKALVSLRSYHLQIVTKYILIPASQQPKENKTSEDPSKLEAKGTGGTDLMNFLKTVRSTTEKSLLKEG
row,Structure (SMILES),IC50
1,"Nc1ccc(F)c(C(=O)N2CC(=O)N(O)C2c2cc(Br)cs2)c1F (stereo not shown) [Example 105, 1-(3-Amino-2,6-difluoro-benzoyl)-2-(4-bromo-2-thienyl)-3-hydroxy-imidazolidin-4-one]",≤ 1000 nM
2,"O=C1CN(C(=O)c2c(F)cccc2Cl)C(c2csc(Br)c2)N1O (stereo not shown) [Example 99, 2-(5-Bromo-3-thienyl)-1-(2-chloro-6-fluoro-benzoyl)-3-hydroxy-imidazolidin-4-one]",≤ 1000 nM
3,"O=C1CN(C(=O)c2c(F)cccc2F)C(c2ccc(Br)s2)N1O (single isomer, unassigned) [Example 49a, 2-(5-Bromo-2-thienyl)-1-(2,6-difluorobenzoyl)-3-hydroxy-imidazolidin-4-one]",≤ 5000 nM and 1000 to 5000 nM
4,"Cn1cc(-c2cc(F)c(C(=O)N3CC(=O)N(O)C3c3cc(Br)cs3)c(F)c2)cn1 (stereo not shown) [Example 86, 2-(4-Bromo-2-thienyl)-1-[2,6-difluoro-4-(1-methylpyrazol-4-yl)benzoyl]-3-hydroxy-imidazolidin-4-one]",≤ 1000 nM
5,"O=C1CN(C(=O)c2c(F)cc(-c3cccnc3)cc2F)C(c2cc(Br)cs2)N1O (stereo not shown) [Example 88, 2-(4-Bromo-2-thienyl)-1-[2,6-difluoro-4-(3-pyridyl)benzoyl]-3-hydroxy-imidazolidin-4-one]",≤ 1000 nM
6,"O=C1CN(C(=O)c2c(F)cccc2F)C(c2cc([N+](=O)[O-])cs2)N1O (stereo not shown) [Example 21, 1-(2,6-Difluorobenzoyl)-3-hydroxy-2-(4-nitro-2-thienyl)imidazolidin-4-one]",≤ 1000 nM
7,"CS(=O)(=O)Nc1ccc(F)c(C(=O)N2CC(=O)N(O)C2c2cc(Br)cs2)c1F (stereo not shown) [Example 107, N-[3-[2-(4-bromo-2-thienyl)-3-hydroxy-4-oxo-imidazolidine-1-carbonyl]-2,4-difluoro-phenyl]methanesulfonamide]",≤ 1000 nM
8,"O=C1CN(C(=O)c2cccnc2Cl)C(c2cc(Br)cs2)N1O (stereo not shown) [Example 66, 2-(4-Bromo-2-thienyl)-1-(2-chloropyridine-3-carbonyl)-3-hydroxy-imidazolidin-4-one]",≤ 1000 nM
9,"CSc1ccc(C2N(O)C(=O)CN2C(=O)c2ccccc2F)s1 (stereo not shown) [Example 13, 1-(2-Fluorobenzoyl)-3-hydroxy-2-(5-methylsulfanyl-2-thienyl)imidazolidin-4-one]",≤ 5000 nM and 1000 to 5000 nM
10,"CN(C)c1cc(F)c(C(=O)N2CC(=O)N(O)C2c2cc(Br)cs2)c(F)c1 (stereo not shown) [Example 97, 2-(4-Bromo-2-thienyl)-1-[4-(dimethylamino)-2,6-difluoro-benzoyl]-3-hydroxy-imidazolidin-4-one]",≤ 5000 nM and 1000 to 5000 nM
11,"O=C1CN(C(=O)c2c(F)cccc2F)C(c2csc(Br)c2)N1O (single isomer, unassigned) [Example 46a, 2-(5-Bromo-3-thienyl)-1-(2,6-difluorobenzoyl)-3-hydroxy-imidazolidin-4-one]",≤ 5000 nM and 1000 to 5000 nM
12,"O=C1CN(C(=O)c2c(F)ccc(-c3ccc(F)s3)c2F)C(c2cc(Br)cs2)N1O (stereo not shown) [Example 132, 2-(4-Bromo-2-thienyl)-1-[2,6-difluoro-3-(5-fluoro-2-thienyl)benzoyl]-3-hydroxy-imidazolidin-4-one]",≤ 1000 nM
13,"O=C1CN(C(=O)c2c(F)cc(C#CC3CC3)cc2F)C(c2cc(Br)cs2)N1O (single isomer, unassigned) [Example 47b, 2-(4-Bromo-2-thienyl)-1-[4-(2-cyclopropylethynyl)-2,6-difluoro-benzoyl]-3-hydroxy-imidazolidin-4-one]",≤ 1000 nM
14,"O=C1CN(C(=O)c2c(F)cc(C#CC3CC3)cc2F)C(c2cc(Br)cs2)N1O (single isomer, unassigned) [Example 47a, 2-(4-Bromo-2-thienyl)-1-[4-(2-cyclopropylethynyl)-2,6-difluoro-benzoyl]-3-hydroxy-imidazolidin-4-one]",≤ 1000 nM
15,"O=C1CN(C(=O)c2c(Cl)cccc2Cl)C(c2cc(Br)cs2)N1O (stereo not shown) [Example 10, 2-(4-Bromo-2-thienyl)-1-(2,6-dichlorobenzoyl)-3-hydroxy-imidazolidin-4-one]",≤ 5000 nM and 1000 to 5000 nM
16,"COc1ccc(F)c(C(=O)N2CC(=O)N(O)C2c2cc(Br)cs2)c1F (stereo not shown) [Example 75, 2-(4-Bromo-2-thienyl)-1-(2,6-difluoro-3-methoxy-benzoyl)-3-hydroxy-imidazolidin-4-one]",≤ 1000 nM

row,Structure (SMILES),IC50
1,"O=C1CN(C(=O)c2c(F)ccc(-c3ccccc3)c2F)C(c2csc(Br)c2)N1O (stereo not shown) [Example 123, 2-(5-Bromo-3-thienyl)-1-(2,6-difluoro-3-phenyl-benzoyl)-3-hydroxy-imidazolidin-4-one]",≤ 1000 nM
2,"O=C1CN(C(=O)c2c(F)cccc2F)C(c2cc(I)c(F)s2)N1O (stereo not shown) [Example 116, 1-(2,6-Difluorobenzoyl)-2-(5-fluoro-4-iodo-2-thienyl)-3-hydroxy-imidazolidin-4-one]",≤ 1000 nM
3,"NS(=O)(=O)NC1(C#Cc2cc(F)c(C(=O)N3CC(=O)N(O)C3c3cc(Br)cs3)c(F)c2)CC1 (stereo not shown) [Example 90, 2-(4-Bromo-2-thienyl)-1-[2,6-difluoro-4-[2-[1-(sulfamoylamino)cyclopropyl]ethynyl]benzoyl]-3-hydroxy-4-oxo-imidazolidine]",≤ 1000 nM
4,"Cc1cc(F)c(C(=O)N2CC(=O)N(O)C2c2cc(Br)cs2)c(F)c1 (stereo not shown) [Example 84, 2-(4-Bromo-2-thienyl)-1-(2,6-difluoro-4-methyl-benzoyl)-3-hydroxy-imidazolidin-4-one]",≤ 1000 nM
5,"O=C1CN(C(=O)c2c(F)cccc2F)C(c2csc(Br)c2)N1O (stereo not shown) [Example 28, 2-(5-Bromo-3-thienyl)-1-(2,6-difluorobenzoyl)-3-hydroxy-imidazolidin-4-one]",≤ 1000 nM
6,"CCc1ccc(C2N(O)C(=O)CN2C(=O)c2c(F)cccc2F)s1 (stereo not shown) [Example 18, 1-(2,6-Difluorobenzoyl)-2-(5-ethyl-2-thienyl)-3-hydroxy-imidazolidin-4-one]",≤ 5000 nM and 1000 to 5000 nM
7,"C=Cc1cc(F)c(C(=O)N2CC(=O)N(O)C2c2cc(Br)cs2)c(F)c1 (stereo not shown) [Example 83, 2-(4-Bromo-2-thienyl)-1-(2,6-difluoro-4-vinyl-benzoyl)-3-hydroxy-imidazolidin-4-one]",≤ 1000 nM
8,"O=C1CN(Cc2c(F)cccc2F)C(c2cc(Br)cs2)N1O (single isomer, unassigned) [Example 45b, 2-(4-Bromo-2-thienyl)-1-[(2,6-difluorophenyl)methyl]-3-hydroxy-imidazolidin-4-one]",≤ 1000 nM
9,"O=C1CN(C(=O)c2c(F)cccc2F)C(c2cc(Br)c(Cl)s2)N1O (stereo not shown) [Example 115, 2-(4-Bromo-5-chloro-2-thienyl)-1-(2,6-difluorobenzoyl)-3-hydroxy-imidazolidin-4-one]",≤ 1000 nM
10,"O=C1CN(C(=O)c2c(F)ccc(-c3ccc(F)cc3)c2F)C(c2cc(Br)cs2)N1O (stereo not shown) [Example 136, 2-(4-Bromo-2-thienyl)-1-[2,6-difluoro-3-(4-fluorophenyl)benzoyl]-3-hydroxy-imidazolidin-4-one]",≤ 1000 nM
11,"O=C1CN(C(=O)c2c(F)cccc2F)C(c2cc(Br)cs2)N1O (single isomer, unassigned) [Example 48a, 2-(4-Bromo-2-thienyl)-1-(2,6-difluorobenzoyl)-3-hydroxy-imidazolidin-4-one]",≤ 1000 nM
12,"O=C1CN(C(=O)c2c(F)cccc2Cl)C(c2cc(Br)cs2)N1O (stereo not shown) [Example 7, 2-(4-Bromo-2-thienyl)-1-(2-chloro-6-fluoro-benzoyl)-3-hydroxy-imidazolidin-4-one]",≤ 1000 nM
13,"O=C1CN(C(=O)c2c(F)cccc2F)C(c2cc(Br)c(F)s2)N1O (stereo not shown) [Example 37, 2-(4-Bromo-5-fluoro-2-thienyl)-1-(2,6-difluorobenzoyl)-3-hydroxy-imidazolidin-4-one]",≤ 1000 nM
14,"NC1(C#Cc2cc(F)c(C(=O)N3CC(=O)N(O)C3c3cc(Br)cs3)c(F)c2)CC1 (stereo not shown) [Example 89, 1-[4-[2-(1-Aminocyclopropyl)ethynyl]-2,6-difluoro-benzoyl]-2-(4-bromo-2-thienyl)-3-hydroxy-imidazolidin-4-one]",≤ 1000 nM
15,"NCC#Cc1cc(F)c(C(=O)N2CC(=O)N(O)C2c2cc(Br)cs2)c(F)c1 (stereo not shown) [Example 79, 1-[4-(3-Aminoprop-1-ynyl)-2,6-difluoro-benzoyl]-2-(4-bromo-2-thienyl)-3-hydroxy-imidazolidin-4-one]",≤ 1000 nM
16,"CC(=O)NCC#Cc1cc(F)c(C(=O)N2CC(=O)N(O)C2c2cc(Br)cs2)c(F)c1 (stereo not shown) [Example 130, N-[3-[4-[2-(4-Bromo-2-thienyl)-3-hydroxy-4-oxo-imidazolidine-1-carbonyl]-3,5-difluoro-phenyl]prop-2-ynyl]acetamide]",≤ 1000 nM

# Same assay, conditions: stated in the synthesis examples; assay not named
row,Structure (SMILES),relative activity of the separated isomers
1,"O=C1CN(C(=O)c2c(F)cccc2F)C(c2ccc(Br)s2)N1O (single isomer, unassigned) [Example 49a, 2-(5-Bromo-2-thienyl)-1-(2,6-difluorobenzoyl)-3-hydroxy-imidazolidin-4-one]",less active isomer
2,"O=C1CN(C(=O)c2c(F)cccc2F)C(c2cc(Br)c(F)s2)N1O (single isomer, unassigned) [Example 110b, 2-(4-Bromo-5-fluoro-2-thienyl)-1-(2,6-difluorobenzoyl)-3-hydroxy-imidazolidin-4-one]",less active isomer
3,"O=C1CN(C(=O)c2c(F)cccc2F)C(c2csc(Br)c2)N1O (single isomer, unassigned) [Example 46a, 2-(5-Bromo-3-thienyl)-1-(2,6-difluorobenzoyl)-3-hydroxy-imidazolidin-4-one]",less active isomer
4,"O=C1CN(C(=O)c2c(F)cc(C#CC3CC3)cc2F)C(c2cc(Br)cs2)N1O (single isomer, unassigned) [Example 47b, 2-(4-Bromo-2-thienyl)-1-[4-(2-cyclopropylethynyl)-2,6-difluoro-benzoyl]-3-hydroxy-imidazolidin-4-one]",most active isomer
5,"O=C1CN(C(=O)c2c(F)cc(C#CC3CC3)cc2F)C(c2cc(Br)cs2)N1O (single isomer, unassigned) [Example 47a, 2-(4-Bromo-2-thienyl)-1-[4-(2-cyclopropylethynyl)-2,6-difluoro-benzoyl]-3-hydroxy-imidazolidin-4-one]",less active isomer
6,"C[C@@H](c1ccccc1)N1CC(=O)N(O)C1c1ccc(Br)s1 (single isomer, unassigned) [Example 120a]",less active isomer
7,"O=C1CN(Cc2c(F)cccc2F)C(c2cc(Br)cs2)N1O (single isomer, unassigned) [Example 45b, 2-(4-Bromo-2-thienyl)-1-[(2,6-difluorophenyl)methyl]-3-hydroxy-imidazolidin-4-one]",most active isomer
8,"O=C1CN(C(=O)c2c(F)cccc2F)C(c2cc(Br)cs2)N1O (single isomer, unassigned) [Example 48a, 2-(4-Bromo-2-thienyl)-1-(2,6-difluorobenzoyl)-3-hydroxy-imidazolidin-4-one]",less active isomer
